{"source": "paper PMC5731934", "about": "“Modifying glycyrrhetinic acid liposomes with liver-targeting ligand of galactosylated derivative: preparation and evaluations” (Oncotarget, 2017)", "origin": "cited, not measured here", "set-up": "method as in PMID 11752037", "data": [{"smiles": "CC1(C)[C@@H](O)CC[C@]2(C)[C@H]3C(=O)C=C4[C@@H]5C[C@@](C)(C(=O)O)CC[C@]5(C)CC[C@@]4(C)[C@]3(C)CC[C@@H]12", "note": "[GA, Glycyrrhetinic acid]", "values": [{"measurement": "solubility in water", "value": "< 10", "unit": "µg/mL"}]}]}
